Measured values taken from patent publication US20250320193A1, “OXOISOINDOLINYL SUBSTITUTED PIPERIDINEDIONE DERIVATIVE AND USE THEREOF” (GLUETACS THERAPEUTICS (SHANGHAI) CO., LTD., priority 2022, published 2025).
Read-outs that look alike come from different tables or passages of the source.

Key:
[1] = molecular target: human Cereblon WT GST-tagged protein (Homo sapiens (Human), UniProt Q96SW2); test: CRBN-binding affinity, HTRF (CEREBLON BINDING kit, CISBIO); details: HTRF inhibitory activity
How it was run: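 Compounds were mixed with GST-tagged human Cereblon WT protein, then with Thalidomide-Red tracer and GST Eu antibody, and binding was read by HTRF. Inhibition rate was calculated from 620 nm emission relative to blank control wells (no protein) and solvent control wells.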

[2] = molecular target: IKZF1 (Homo sapiens (Human), UniProt Q13422+Q96SW2); test: Western blot, substrate protein expression in hPBMC: IKZF1; format: cell-based; details: hPBMC, compound 500 nM, 24 hours, Western blot
How it was run: (§1)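 hPBMC, 1×10^6 cells/mL, 24 h compound exposure; RIPA lysis, BCA protein assay, SDS-PAGE, NC membrane immunoblot. Densitometry vs internal control → % protein remaining; degradation % = 100% − remaining; DC50 = conc. at 50% of DMSO band signal.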

[3] = molecular target: IKZF3 (Homo sapiens (Human), UniProt Q96SW2+Q9UKT9); test: Western blot, substrate protein expression in hPBMC: IKZF3; format: cell-based; details: hPBMC, compound 500 nM, 24 hours, Western blot
How it was run: as §1

[4] = molecular target: GSPT1 (Homo sapiens (Human), UniProt P15170+Q96SW2); test: Western blot, substrate protein expression in hPBMC: GSPT1; format: cell-based; details: hPBMC, compound 500 nM, 24 hours, Western blot
How it was run: as §1

[5] = tested on: CAL-62 (human thyroid carcinoma cells); test: Tumor cell proliferation inhibition, CCK-8; format: cell-based
How it was run: (§2)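 STR-authenticated, mycoplasma-free cells cultured at 37° C with 5% CO2. Compound added 24 h post-seeding, 10 μM top, 5-fold × 10. Viability by CCK-8; IC50 from inhibition curve.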

[6] = tested on: CCRF-CEM (human acute lymphoblastic leukemia T-cells); test: Tumor cell proliferation inhibition, CCK-8; format: cell-based
How it was run: as §2

[7] = tested on: H146 cells (human small cell lung carcinoma cells); test: Tumor cell proliferation inhibition, CCK-8; format: cell-based
How it was run: as §2

[8] = tested on: Jurkat cells (human T-cell leukemia cells); test: Tumor cell proliferation inhibition, CCK-8; format: cell-based
How it was run: as §2

[9] = tested on: Kasumi-1 (human acute myeloid leukemia cells); test: Tumor cell proliferation inhibition, CCK-8; format: cell-based
How it was run: as §2

[10] = tested on: MDA-MB-231 cells (human breast adenocarcinoma cells); test: Tumor cell proliferation inhibition, CCK-8; format: cell-based
How it was run: as §2

[11] = tested on: MM.1R cells (dexamethasone-resistant human multiple myeloma cells); test: Tumor cell proliferation inhibition, CCK-8; format: cell-based
How it was run: as §2

[12] = tested on: MM.1S cells (human multiple myeloma cells); test: Tumor cell proliferation inhibition, CCK-8; format: cell-based; details: MM1.S
How it was run: as §2

[13] = tested on: TMD8 cells (human diffuse large B-cell lymphoma cells); test: Tumor cell proliferation inhibition, CCK-8; format: cell-based
How it was run: as §2

[14] = CAL-62 cells, CCK-8, read-out: inhibitory activity (IC50, nM) CAL-62
[15] = CCRF-CEM cells, CCK-8, read-out: inhibitory activity (IC50, nM) CCRF-CEM
[16] = NCI-H146, H146 cells, CCK-8, read-out: inhibitory activity (IC50, nM) H146
[17] = Jurkat cells, CCK-8, read-out: inhibitory activity (IC50, nM) Jurkat
[18] = Kasumi-1 cells, CCK-8, read-out: inhibitory activity (IC50, nM) Kasumi-1
[19] = MDA-MB-231 cells, CCK-8, read-out: inhibitory activity (IC50, nM) MDA-MB-231
[20] = MM.1R cells, CCK-8, read-out: inhibitory activity (IC50, nM) MM.1R
[21] = MM.1S cells, CCK-8, read-out: inhibitory activity (IC50, nM) MM.1S
[22] = TMD8 cells, CCK-8, read-out: inhibitory activity (IC50, nM) TMD8

IKZF3, sequence (Q9UKT9 whole entry): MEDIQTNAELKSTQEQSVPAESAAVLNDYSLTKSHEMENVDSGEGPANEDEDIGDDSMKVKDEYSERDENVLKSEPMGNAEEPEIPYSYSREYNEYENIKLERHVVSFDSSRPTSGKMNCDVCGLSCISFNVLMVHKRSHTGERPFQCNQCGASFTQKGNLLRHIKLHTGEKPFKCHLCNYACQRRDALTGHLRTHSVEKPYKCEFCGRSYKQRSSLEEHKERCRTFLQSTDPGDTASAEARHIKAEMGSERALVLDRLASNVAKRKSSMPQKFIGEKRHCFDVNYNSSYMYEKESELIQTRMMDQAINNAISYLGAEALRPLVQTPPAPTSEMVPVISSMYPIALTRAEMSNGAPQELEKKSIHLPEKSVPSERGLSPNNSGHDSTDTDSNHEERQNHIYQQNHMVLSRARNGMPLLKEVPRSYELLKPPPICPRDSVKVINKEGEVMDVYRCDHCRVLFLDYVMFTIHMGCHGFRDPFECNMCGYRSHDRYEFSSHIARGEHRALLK
IKZF3, sequence (Q96SW2 whole entry): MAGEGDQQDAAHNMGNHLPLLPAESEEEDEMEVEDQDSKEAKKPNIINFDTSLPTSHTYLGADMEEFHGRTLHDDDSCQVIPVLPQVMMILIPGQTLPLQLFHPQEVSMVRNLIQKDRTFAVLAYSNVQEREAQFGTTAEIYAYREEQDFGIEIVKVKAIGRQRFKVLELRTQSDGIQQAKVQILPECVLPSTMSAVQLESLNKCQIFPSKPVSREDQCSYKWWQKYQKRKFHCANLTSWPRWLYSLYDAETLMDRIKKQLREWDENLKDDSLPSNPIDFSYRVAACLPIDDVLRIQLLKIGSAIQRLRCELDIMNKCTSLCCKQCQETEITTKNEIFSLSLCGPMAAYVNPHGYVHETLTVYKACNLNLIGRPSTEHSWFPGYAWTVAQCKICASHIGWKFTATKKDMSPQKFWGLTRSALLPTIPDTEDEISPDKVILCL
IKZF3, sequence (Q16531 whole entry partner): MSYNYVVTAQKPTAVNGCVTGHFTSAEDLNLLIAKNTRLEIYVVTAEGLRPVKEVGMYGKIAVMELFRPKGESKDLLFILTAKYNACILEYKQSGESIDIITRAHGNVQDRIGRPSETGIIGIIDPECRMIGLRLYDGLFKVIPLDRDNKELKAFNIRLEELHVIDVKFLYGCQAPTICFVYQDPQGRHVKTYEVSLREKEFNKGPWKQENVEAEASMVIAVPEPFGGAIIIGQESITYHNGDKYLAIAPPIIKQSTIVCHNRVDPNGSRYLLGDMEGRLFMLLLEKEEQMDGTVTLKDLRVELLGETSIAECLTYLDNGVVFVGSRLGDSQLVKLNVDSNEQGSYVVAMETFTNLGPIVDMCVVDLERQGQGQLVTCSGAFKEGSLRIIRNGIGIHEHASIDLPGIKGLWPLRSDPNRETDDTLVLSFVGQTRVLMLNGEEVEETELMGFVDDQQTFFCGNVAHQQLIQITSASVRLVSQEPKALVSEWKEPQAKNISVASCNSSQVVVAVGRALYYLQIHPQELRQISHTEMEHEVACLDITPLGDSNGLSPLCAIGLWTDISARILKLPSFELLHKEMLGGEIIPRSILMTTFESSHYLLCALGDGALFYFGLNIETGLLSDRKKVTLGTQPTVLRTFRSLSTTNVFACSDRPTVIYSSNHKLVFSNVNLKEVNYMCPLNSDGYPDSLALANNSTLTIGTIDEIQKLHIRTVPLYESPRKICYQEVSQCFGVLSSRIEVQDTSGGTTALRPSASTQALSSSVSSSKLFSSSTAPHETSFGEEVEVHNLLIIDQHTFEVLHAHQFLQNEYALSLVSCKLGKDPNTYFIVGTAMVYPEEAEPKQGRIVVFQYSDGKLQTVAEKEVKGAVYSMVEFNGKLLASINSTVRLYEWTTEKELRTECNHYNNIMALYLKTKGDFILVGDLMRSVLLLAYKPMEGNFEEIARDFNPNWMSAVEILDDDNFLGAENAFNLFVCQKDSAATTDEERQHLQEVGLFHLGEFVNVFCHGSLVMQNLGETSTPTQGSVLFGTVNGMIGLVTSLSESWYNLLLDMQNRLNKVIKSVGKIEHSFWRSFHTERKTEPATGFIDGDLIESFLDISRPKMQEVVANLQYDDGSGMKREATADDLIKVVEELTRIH
IKZF1, sequence (Q13422 whole entry): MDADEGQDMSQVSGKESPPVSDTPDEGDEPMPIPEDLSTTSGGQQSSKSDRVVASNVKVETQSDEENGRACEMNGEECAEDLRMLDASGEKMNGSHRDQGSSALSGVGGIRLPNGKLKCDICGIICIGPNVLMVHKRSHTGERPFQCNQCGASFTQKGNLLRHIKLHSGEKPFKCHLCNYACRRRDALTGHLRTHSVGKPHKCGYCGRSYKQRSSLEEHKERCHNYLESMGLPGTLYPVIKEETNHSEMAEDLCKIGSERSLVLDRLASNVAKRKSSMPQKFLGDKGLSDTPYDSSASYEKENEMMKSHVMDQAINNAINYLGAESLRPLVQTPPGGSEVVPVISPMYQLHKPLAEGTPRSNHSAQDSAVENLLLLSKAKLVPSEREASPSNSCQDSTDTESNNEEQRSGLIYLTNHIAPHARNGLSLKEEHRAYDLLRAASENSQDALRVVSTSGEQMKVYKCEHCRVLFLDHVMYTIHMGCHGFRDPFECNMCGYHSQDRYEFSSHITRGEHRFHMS
IKZF1, sequence (Q96SW2 whole entry): as the sequence (Q96SW2 whole entry) above
IKZF1, sequence (Q16531 whole entry partner): as the sequence (Q16531 whole entry partner) above
human Cereblon WT GST-tagged protein, sequence (Q96SW2 whole entry): as the sequence (Q96SW2 whole entry) above
GSPT1, sequence (P15170 whole entry): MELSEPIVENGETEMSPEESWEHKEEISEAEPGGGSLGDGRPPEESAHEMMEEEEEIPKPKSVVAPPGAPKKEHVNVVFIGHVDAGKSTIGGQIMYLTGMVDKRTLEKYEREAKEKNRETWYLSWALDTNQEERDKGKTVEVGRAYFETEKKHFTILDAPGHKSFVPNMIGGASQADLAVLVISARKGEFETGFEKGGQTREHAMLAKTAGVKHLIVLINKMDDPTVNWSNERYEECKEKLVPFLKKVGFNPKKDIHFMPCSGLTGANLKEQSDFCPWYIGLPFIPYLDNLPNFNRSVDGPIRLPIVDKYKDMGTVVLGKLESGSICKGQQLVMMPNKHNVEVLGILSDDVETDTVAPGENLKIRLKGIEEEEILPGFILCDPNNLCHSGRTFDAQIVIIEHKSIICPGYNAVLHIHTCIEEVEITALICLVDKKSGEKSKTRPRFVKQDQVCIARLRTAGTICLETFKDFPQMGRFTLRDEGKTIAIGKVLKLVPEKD
GSPT1, sequence (Q96SW2 whole entry): as the sequence (Q96SW2 whole entry) above
GSPT1, sequence (Q16531 whole entry partner): as the sequence (Q16531 whole entry partner) above

SMILES	IC50 [1] [µM]	substrate protein remaining % IKZF1 [2]	substrate protein remaining % IKZF3 [3]	substrate protein remaining % GSPT1 [4]	IC50 [5, 14] [nM]	IC50 [6, 15] [nM]	IC50 [7, 16] [nM]	IC50 [8, 17] [nM]	IC50 [9, 18] [nM]	IC50 [10, 19] [nM]	IC50 [11, 20] [nM]	IC50 [12, 21] [nM]	IC50 [13, 22] [nM]	also measured
O=C1CCC(N2Cc3cc(CN4CCN(C(c5ccccc5)c5ccccc5)CC4)ccc3C2=O)C(=O)N1 (stereo not drawn) [GT-03245, 3-(5-((4-benzhydrylpiperazin-1-yl)methyl)-1-oxoisoindolin-2-yl)piperidine-2,6-dione]	0.5 to 1	A (A represents 0% ≤ substrate protein remaining % ≤ 50%)	A (A represents 0% ≤ substrate protein remaining % ≤ 50%)	A (A represents 0% ≤ substrate protein remaining % ≤ 50%)	< 1	< 1	10 to 50	1 to 10	< 1	1 to 10	< 1	1 to 10	10 to 50	–
O=C1CCC(N2Cc3cc(CN4CCN(C(c5ccc(F)cc5)c5ccc(F)cc5)CC4)ccc3C2=O)C(=O)N1 (stereo not drawn) [GT-03386, 3-(5-((4-(bis(4-fluorophenyl)methyl)piperazin-1-yl)methyl)-1-oxoisoindolin-2-yl)piperidine-2,6-dione]	0.5 to 1	A (A represents 0% ≤ substrate protein remaining % ≤ 50%)	A (A represents 0% ≤ substrate protein remaining % ≤ 50%)	A (A represents 0% ≤ substrate protein remaining % ≤ 50%)	1 to 10	1 to 10	50 to 100	10 to 50	10 to 50	10 to 50	1 to 10	1 to 10	50 to 100	–
O=C1CCC(N2Cc3c(ccc(CN4CCN(C(c5ccccc5)c5ccccc5)CC4)c3F)C2=O)C(=O)N1 (stereo not drawn) [GT-03466, 3-(5-((4-benzhydrylpiperazin-1-yl)methyl)-4-fluoro-1-oxoisoindolin-2-yl)piperidine-2,6-dione]	< 0.5	A (A represents 0% ≤ substrate protein remaining % ≤ 50%)	A (A represents 0% ≤ substrate protein remaining % ≤ 50%)	A (A represents 0% ≤ substrate protein remaining % ≤ 50%)	1 to 10	< 1	10 to 50	1 to 10	1 to 10	1 to 10	1 to 10	1 to 10	10 to 50	–
O=C1CCC(N2Cc3c(ccc(CN4CCN(C(c5ccc(F)cc5)c5ccc(F)cc5)CC4)c3F)C2=O)C(=O)N1 (stereo not drawn) [GT-03564, 3-(5-((4-(bis(4-fluorophenyl)methyl)piperazin-1-yl)methyl)-4-fluoro-1-oxoisoindolin-2-yl)piperidine-2,6-dione]	< 0.5	A (A represents 0% ≤ substrate protein remaining % ≤ 50%)	A (A represents 0% ≤ substrate protein remaining % ≤ 50%)	A (A represents 0% ≤ substrate protein remaining % ≤ 50%)	1 to 10	1 to 10	10 to 50	10 to 50	1 to 10	10 to 50	10 to 50	1 to 10	10 to 50	–
O=C1CCC(N2Cc3cc(CN4CCN(C(c5ccc(F)cc5)c5ccc(F)cc5)CC4)c(F)cc3C2=O)C(=O)N1 (stereo not drawn) [GT-03698, 3-(5-((4-(bis(4-fluorophenyl)methyl)piperazin-1-yl)methyl)-6-fluoro-1-oxoisoindolin-2-yl)piperidine-2,6-dione]	0.5 to 1	A (A represents 0% ≤ substrate protein remaining % ≤ 50%)	A (A represents 0% ≤ substrate protein remaining % ≤ 50%)	A (A represents 0% ≤ substrate protein remaining % ≤ 50%)	1 to 10	< 1	10 to 50	1 to 10	1 to 10	10 to 50	1 to 10	1 to 10	100 to 500	–
O=C1CCC(N2Cc3cc(CN4CCN(C(c5ccccc5)c5ccccc5)CC4)c(F)cc3C2=O)C(=O)N1 (stereo not drawn) [GT-03700, 3-(5-((4-benzhydrylpiperazin-1-yl)methyl)-6-fluoro-1-oxoisoindolin-2-yl)piperidine-2,6-dione]	0.5 to 1	A (A represents 0% ≤ substrate protein remaining % ≤ 50%)	B (B represents substrate protein remaining % > 50%)	A (A represents 0% ≤ substrate protein remaining % ≤ 50%)	1 to 10	1 to 10	10 to 50	1 to 10	1 to 10	1 to 10	1 to 10	1 to 10	10 to 50	–
O=C1CCC(N2Cc3cc(CN4CCN(C(c5cccc(F)c5)c5cccc(F)c5)CC4)c(F)cc3C2=O)C(=O)N1 (stereo not drawn) [GT-03701, 3-(5-((4-(bis(3-fluorophenyl)methyl)piperazin-1-yl)methyl)-6-fluoro-1-oxoisoindolin-2-yl)piperidine-2,6-dione]	0.5 to 1	A (A represents 0% ≤ substrate protein remaining % ≤ 50%)	A (A represents 0% ≤ substrate protein remaining % ≤ 50%)	A (A represents 0% ≤ substrate protein remaining % ≤ 50%)	1 to 10	1 to 10	50 to 100	10 to 50	10 to 50	10 to 50	1 to 10	1 to 10	100 to 500	–
O=C1CCC(N2Cc3cc(CN4CCN(C(c5cccc(F)c5)c5cccc(F)c5)CC4)ccc3C2=O)C(=O)N1 (stereo not drawn) [GT-03702, 3-(5-((4-(bis(3-fluorophenyl)methyl)piperazin-1-yl)methyl)-1-oxoisoindolin-2-yl)piperidine-2,6-dione]	< 0.5	A (A represents 0% ≤ substrate protein remaining % ≤ 50%)	A (A represents 0% ≤ substrate protein remaining % ≤ 50%)	A (A represents 0% ≤ substrate protein remaining % ≤ 50%)	< 1	< 1	10 to 50	1 to 10	1 to 10	1 to 10	1 to 10	< 1	10 to 50	–
O=C1CCC(N2Cc3c(ccc(CN4CCN(C(c5cccc(F)c5)c5cccc(F)c5)CC4)c3F)C2=O)C(=O)N1 (stereo not drawn) [GT-03703, 3-(5-((4-(bis(3-fluorophenyl)methyl)piperazin-1-yl)methyl)-4-fluoro-1-oxoisoindolin-2-yl)piperidine-2,6-dione]	< 0.5	A (A represents 0% ≤ substrate protein remaining % ≤ 50%)	A (A represents 0% ≤ substrate protein remaining % ≤ 50%)	A (A represents 0% ≤ substrate protein remaining % ≤ 50%)	1 to 10	< 1	10 to 50	1 to 10	1 to 10	1 to 10	1 to 10	1 to 10	10 to 50	–
Nc1cccc2c1CN(C1CCC(=O)NC1=O)C2=O (stereo not drawn) [lenalidomide, reference compound]	–	–	–	–	–	–	–	–	–	–	–	–	–	IC50 ([5]; CAL-62, read-out: inhibitory activity (IC50, nM) CAL-62): > 10000 nM; IC50 ([6]; CCRF-CEM, read-out: inhibitory activity (IC50, nM) CCRF-CEM): > 10000 nM; IC50 ([7]; NCI-H146, read-out: inhibitory activity (IC50, nM) H146): > 10000 nM; IC50 ([8]; Jurkat, read-out: inhibitory activity (IC50, nM) Jurkat): > 10000 nM; IC50 ([9]; Kasumi 1, read-out: inhibitory activity (IC50, nM) Kasumi-1): > 10000 nM; IC50 ([10]; MDA-MB-231, read-out: inhibitory activity (IC50, nM) MDA-MB-231): > 10000 nM; IC50 ([11]; MM.1R, read-out: inhibitory activity (IC50, nM) MM.1R): > 10000 nM; IC50 ([12]; read-out: inhibitory activity (IC50, nM) MM.1S): > 10000 nM; IC50 ([13]; TMD8, read-out: inhibitory activity (IC50, nM) TMD8): > 10000 nM
Nc1cccc2c1C(=O)N(C1CCC(=O)NC1=O)C2=O (stereo not drawn) [pomalidomide, reference compound]	–	–	–	–	> 10000	5000 to 10000	> 10000	> 10000	> 10000	> 10000	> 10000	500 to 1000	5000 to 10000	–
